One assay concerns the target T1, human GPR120 (Homo sapiens, UniProt Q5NUL3).
T1 construct: host or cells: HEK293 cells co-expressing Gqi5
T1 sequence (Q5NUL3 1-361): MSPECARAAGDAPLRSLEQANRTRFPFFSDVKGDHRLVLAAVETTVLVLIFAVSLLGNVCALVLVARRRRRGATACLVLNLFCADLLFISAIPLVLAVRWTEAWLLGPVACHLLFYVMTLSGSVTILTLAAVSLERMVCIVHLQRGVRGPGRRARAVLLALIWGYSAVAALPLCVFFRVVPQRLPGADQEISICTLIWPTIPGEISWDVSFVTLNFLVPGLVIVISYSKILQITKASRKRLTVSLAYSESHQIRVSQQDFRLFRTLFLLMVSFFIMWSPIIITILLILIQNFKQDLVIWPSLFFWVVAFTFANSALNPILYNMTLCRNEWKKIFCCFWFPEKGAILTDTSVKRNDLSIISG
Briefly: Intracellular Ca2+ assay in human GPR120 stable cell line (FLIPR Calcium 4 dye, Flexstation). Particulars: % activity at 2.5 µM compared to the maximal activity of the compound of Example 25 at 2.5 µM (=100%); HEK293 cells co-expressing Gqi5. The format is cell-based.
For the compound `CC1(C)Cc2cc(F)cc(COc3ccc(C4CC4C(=O)O)cc3)c2O1` (stereo not drawn) [Example 131B, 2-(4-((5-fluoro-2,2-dimethyl-2,3-dihydrobenzofuran-7-yl)methoxy)phenyl) cyclopropanecarboxylic acid], the “% Activity (Ex. 25 Reference Compound)” value came to 105.8%.

Staying with this assay, now noted: HEK293, % activity at 2.5 µM compared to the maximal activity of the compound of Example 25 at 2.5 µM (=100%); HEK293 cells co-expressing Gqi5; read-out: % Activity (Ex. 25 Reference Compound).
Take `CC1(C)Cc2c(COc3ccc4c(c3)CCC4CC(=O)O)ccc(F)c2O1` (stereo not drawn) [Example 94, 2-(5-((7-fluoro-2,2-dimethyl-2,3-dihydrobenzofuran-4-yl)methoxy)-2,3-dihydro-1H-inden-1-yl)acetic acid]: the activity at 2.5 µM was 98.5%.

As for `CC(Cc1ccc(OCc2c(F)ccc3c2CC(C)(C)O3)cc1)C(=O)O` (stereo not drawn) [Example 96, 3-(4-((5-fluoro-2,2-dimethyl-2,3-dihydrobenzofuran-4-yl)methoxy)phenyl)-2-methylpropanoic acid], the activity at 2.5 µM is 125%.

Regarding `CC1(C)Cc2c(ccc(F)c2COc2c(F)cc(C3CC3C(=O)O)cc2F)O1` (stereo not drawn) [Example 99, 2-(3,5-difluoro-4-((5-fluoro-2,2-dimethyl-2,3-dihydrobenzofuran-4-yl)methoxy)phenyl)cyclopropanecarboxylic acid], the activity at 2.5 µM worked out at 102%.

Turning to `Cc1cc(OCC(=O)O)ccc1OCc1cc(Cl)cc2c1OC(C)(C)C2` [Example 103, 2-(4-((5-chloro-2,2-dimethyl-2,3-dihydrobenzofuran-7-yl)methoxy)-3-methylphenoxy)acetic acid], the activity at 2.5 µM is 99%.

In the case of `CC(CC(=O)O)c1cc(F)c(OCc2cc(Cl)cc3c2OC(C)(C)C3)c(F)c1` (stereo not drawn) [Example 106, 3-(4-((5-chloro-2,2-dimethyl-2,3-dihydrobenzofuran-7-yl)methoxy)-3,5-difluorophenyl)butanoic acid], the activity at 2.5 µM worked out at 155%.

On to `COc1cc(COc2ccc(CC(C)C(=O)O)cc2)c2c(c1)CC(C)(C)O2` (stereo not drawn) [Example 108, 3-(4-((5-methoxy-2,2-dimethyl-2,3-dihydrobenzofuran-7-yl)methoxy)phenyl)-2-methylpropanoic acid], for which the activity at 2.5 µM came to 144%.

Regarding `CC(Cc1cc(F)c(OCc2cc(Cl)cc3c2OC(C)C3(C)C)c(F)c1)C(=O)O` (stereo not drawn) [Example 109, 3-(4-((5-chloro-2,3,3-trimethyl-2,3-dihydrobenzofuran-7-yl)methoxy)-3,5-difluorophenyl)-2-methylpropanoic acid], the activity at 2.5 µM is 72.4%.

Turning to `CC(Cc1cc(F)c(OCc2cc(OCc3ccccc3)cc3c2OC(C)(C)C3)c(F)c1)C(=O)O` (stereo not drawn) [Example 111, 3-(4-((5-(benzyloxy)-2,2-dimethyl-2,3-dihydrobenzofuran-7-yl)methoxy)-3,5-difluorophenyl)-2-methylpropanoic acid], the activity at 2.5 µM came out at 51.5%.

With `CC1(C)Cc2cc(Cl)cc(COc3ccc4c(c3)CC(C(=O)O)C4)c2O1` (stereo not drawn) [Example 112, 5-((5-chloro-2,2-dimethyl-2,3-dihydrobenzofuran-7-yl)methoxy)-2,3-dihydro-1H-indene-2-carboxylic acid], the activity at 2.5 µM turned out to be 115%.

On to `CC1(C)Cc2cc(F)cc(COc3ccc4cc(C(=O)O)ccc4c3)c2O1` [Example 114, 6-((5-fluoro-2,2-dimethyl-2,3-dihydrobenzofuran-7-yl)methoxy)-2-naphthoic acid], for which the activity at 2.5 µM is 124%.

For the compound `CC(C)Oc1cc(OCc2cc(F)cc3c2OC(C)(C)C3)ccc1CCC(=O)O` [Example 115, 3-(4-((5-fluoro-2,2-dimethyl-2,3-dihydrobenzofuran-7-yl)methoxy)-2-isopropoxyphenyl)propanoic acid], the activity at 2.5 µM turned out to be 152%.

For the compound `CC(C)Oc1cc(OCc2cc(Cl)cc3c2OC(C)(C)C3)ccc1CCC(=O)O` [Example 116, 3-(4-((5-chloro-2,2-dimethyl-2,3-dihydrobenzofuran-7-yl)methoxy)-2-isopropoxyphenyl)propanoic acid], the activity at 2.5 µM stood at 146%.

Take `Cc1cc2cc(Cl)cc(COc3ccc(CC(C)C(=O)O)cc3F)c2o1` (stereo not drawn) [Example 120, 3-(4-((5-chloro-2-methylbenzofuran-7-yl)methoxy)-3-fluorophenyl)-2-methylpropanoic acid]: the activity at 2.5 µM was 104%.

Turning to `CN(C)Cc1cc(OCc2cc(F)cc3c2OC(C)(C)C3)ccc1CCC(=O)O` [Example 122, 3-(2-((dimethylamino)methyl)-4-((5-fluoro-2,2-dimethyl-2,3-dihydrobenzofuran-7-yl)methoxy)phenyl)propanoic acid], the activity at 2.5 µM amounted to 3.58%.

Regarding `CC(=O)Nc1cc(COc2ccc(CC(C)C(=O)O)cc2)c2c(c1)CC(C)(C)O2` (stereo not drawn) [Example 123, 3-(4-((5-acetamido-2,2-dimethyl-2,3-dihydrobenzofuran-7-yl)methoxy)phenyl)-2-methylpropanoic acid], the activity at 2.5 µM worked out at 47%.

Turning to `CC(Cc1ccc(OCc2cc(OC(F)(F)F)cc3c2OC(C)(C)C3)cc1)C(=O)O` (stereo not drawn) [Example 124, 3-(4-((2,2-dimethyl-5-(trifluoromethoxy)-2,3-dihydrobenzofuran-7-yl)methoxy)phenyl)-2-methylpropanoic acid], the activity at 2.5 µM was found to be 132%.

For `Cc1cc2c(OCc3cc(F)cc4c3OC(C)(C)C4)ccc(CCC(=O)O)c2o1` [Example 125, 3-(4-((5-fluoro-2,2-dimethyl-2,3-dihydrobenzofuran-7-yl)methoxy)-2-methylbenzofuran-7-yl)propanoic acid], the activity at 2.5 µM is 32.6%.

As to `CC(=O)NCCOC(=O)C(C)Cc1ccc(OCc2cc(Cl)cc3c2OC(C)(C)C3)c(C(F)(F)F)c1` (stereo not drawn) [Example 126, 2-acetamidoethyl 3-(4-((5-chloro-2,2-dimethyl-2,3-dihydrobenzofuran-7-yl)methoxy)-3-(trifluoromethyl)phenyl)-2-methylpropanoate], the activity at 2.5 µM stood at 47%.

`CC1(C)Cc2cc(Cl)cc(CNc3ccc(CCC(=O)O)cc3)c2O1` [Example 127, 3-(4-(((5-chloro-2,2-dimethyl-2,3-dihydrobenzofuran-7-yl)methyl)amino)phenyl) propanoic acid]: the activity at 2.5 µM came to 153%.

For the compound `CC(Cc1ccc(OCc2cc(Cl)cc3c2OC(C)(C)C3O)cc1)C(=O)O` (stereo not drawn) [Example 130, 3-(4-((5-chloro-3-hydroxy-2,2-dimethyl-2,3-dihydrobenzofuran-7-yl)methoxy)phenyl)-2-methylpropanoic acid], the activity at 2.5 µM was 104%.

As for `CC1(C)Cc2cc(F)cc(COc3ccc(C4CC4C(=O)O)cc3)c2O1` (stereo not drawn) [Example 131A, 2-(4-((5-fluoro-2,2-dimethyl-2,3-dihydrobenzofuran-7-yl)methoxy)phenyl) cyclopropanecarboxylic acid], the activity at 2.5 µM came to 104%.

With `CC1(C)Cc2cc(F)cc(COc3ccc(CC(=O)O)cc3)c2O1` [Example 133, 2-(4-((5-fluoro-2,2-dimethyl-2,3-dihydrobenzofuran-7-yl)methoxy)phenyl)acetic acid], the activity at 2.5 µM was 103%.

For the compound `CC1(C)Cc2cc(F)cc(COc3ccc(CCC(=O)O)c(OC(F)(F)F)c3)c2O1` [Example 136, 3-(4-((5-fluoro-2,2-dimethyl-2,3-dihydrobenzofuran-7-yl)methoxy)-2-(trifluoromethoxy)phenyl)propanoic acid], the activity at 2.5 µM stood at 141%.

Take `CCc1cc(OCc2cccc3c2CC(C)(C)O3)ccc1CCC(=O)O` [Example 140, 3-(4-((2,2-dimethyl-2,3-dihydrobenzofuran-4-yl)methoxy)-2-ethylphenyl)propanoic acid]: the activity at 2.5 µM worked out at 146%.

For the compound `C[C@H](Cc1ccc(OCc2cc(Cl)cc3c2OC(C)(C)C3)c(C(F)(F)F)c1)C(=O)O` [Example 143, (R)-3-(4-((5-chloro-2,2-dimethyl-2,3-dihydrobenzofuran-7-yl)methoxy)-3-(trifluoromethyl)phenyl)-2-methylpropanoic acid], the activity at 2.5 µM was 90.6%.

With `[2H]C1([2H])c2cc(F)cc(COc3ccc(CC(C)C(=O)O)cc3)c2OC1(C)C` (stereo not drawn) [Example 145, 3-(4-((3,3-dideuterio-5-fluoro-2,2-dimethyl-2,3-dihydrobenzofuran-7-yl)methoxy)phenyl)-2-methylpropanoic acid], the activity at 2.5 µM is 144%.

For the compound `[2H]C1([2H])c2cc(Cl)cc(COc3ccc(CC(C)C(=O)O)cc3F)c2OC1(C)C` (stereo not drawn) [Example 146, 3-(4-((3,3-dideuterio-5-chloro-2,2-dimethyl-2,3-dihydrobenzofuran-7-yl)methoxy)-3-fluorophenyl)-2-methylpropanoic acid], the activity at 2.5 µM came to 141%.

Turning to `[2H]C1([2H])c2cc(Cl)cc(COc3ccc(CC(C)C(=O)O)cc3C(F)(F)F)c2OC1(C)C` (stereo not drawn) [Example 147, 3-(4-((3,3-dideuterio-5-chloro-2,2-dimethyl-2,3-dihydrobenzofuran-7-yl)methoxy)-3-(trifluoromethyl)phenyl)-2-methylpropanoic acid], the activity at 2.5 µM came out at 139%.

Turning to `CC(Cc1ccc(OCc2cc(Cl)cc3c2OCC3(C)C)cc1)C(=O)O` (stereo not drawn) [Example 148, 3-(4-((5-chloro-3,3-dimethyl-2,3-dihydrobenzofuran-7-yl)methoxy)phenyl)-2-methylpropanoic acid], the activity at 2.5 µM is 114%.

`Cc1cc2cccc(COc3c(F)cc(CC(C)C(=O)O)cc3F)c2s1` (stereo not drawn) [Example 151, 3-(3,5-difluoro-4-((2-methylbenzo[b]thiophen-7-yl)methoxy)phenyl)-2-methylpropanoic acid]: the activity at 2.5 µM is 117%.

Staying with this assay, now noted: eight concentrations from 0.00001 to 20 µM; changes (Max-Min) of fluorescence intensity.
`CC(Cc1cc(F)c(OCc2cc(OCc3ccccc3)cc3c2OC(C)(C)C3)c(F)c1)C(=O)O` (stereo not drawn) [Example 111, 3-(4-((5-(benzyloxy)-2,2-dimethyl-2,3-dihydrobenzofuran-7-yl)methoxy)-3,5-difluorophenyl)-2-methylpropanoic acid]: the EC50 (usually the concentration needed to bring the measured effect to its halfway point) lay within 1 to 10 µM.

As for `CC(=O)Nc1cc(COc2ccc(CC(C)C(=O)O)cc2)c2c(c1)CC(C)(C)O2` (stereo not drawn) [Example 123, 3-(4-((5-acetamido-2,2-dimethyl-2,3-dihydrobenzofuran-7-yl)methoxy)phenyl)-2-methylpropanoic acid], the EC50 fell in the range of 1 to 10 µM.

`CC(Cc1ccc(OCc2cc(OC(F)(F)F)cc3c2OC(C)(C)C3)cc1)C(=O)O` (stereo not drawn) [Example 124, 3-(4-((2,2-dimethyl-5-(trifluoromethoxy)-2,3-dihydrobenzofuran-7-yl)methoxy)phenyl)-2-methylpropanoic acid]: the EC50 is ≤ 1 µM.

For `CC(Cc1ccc(OCc2cc(Cl)cc3c2OC(C)(C)C3O)cc1)C(=O)O` (stereo not drawn) [Example 130, 3-(4-((5-chloro-3-hydroxy-2,2-dimethyl-2,3-dihydrobenzofuran-7-yl)methoxy)phenyl)-2-methylpropanoic acid], the EC50 was 1 to 10 µM.

As for `CC1(C)Cc2cc(F)cc(COc3ccc(CC(=O)O)cc3)c2O1` [Example 133, 2-(4-((5-fluoro-2,2-dimethyl-2,3-dihydrobenzofuran-7-yl)methoxy)phenyl)acetic acid], the EC50 was in the range of 1 to 10 µM.

The values are drawn from patent EP2582674B1 (Cymabay Therapeutics, Inc., priority 2010, dated 2011).
